Data from patent US20240270740A1, “INHIBITORS OF CYCLIC GMP-AMP SYNTHASE AND USES THEREOF” (Ventus Therapeutics U.S., Inc., priority 2022, published 2024).

Each compound was assayed against hcGAS (Homo sapiens, UniProt Q8N884) (assay: hcGAS Kinase-Glo assay (ATP depletion)). Details: 40 nM hcGAS, 100 μM ATP, 100 μM GTP, 25 nM dsDNA, 3 h incubation.
Type: biochemical
Method: cGAS catalyzes the cyclization of ATP and GTP to produce cGAMP, which is the activating ligand of STING. Human cGAS (hcGAS) inhibition can thus be quantified by measuring how much cGAMP is formed either indirectly, by monitoring ATP-depletion as in the hcGAS Kinase-Glo assay (as described below), or directly, such as using the hcGAS LCMS assay (as described below).
(i) hcGAS Kinase-Glo Assay
Compounds were tested for their human-cGAS […] inhibition activity using the methodology reported in Lama et al., “Development of human cGAS-specific small molecule inhibitors for repression of dsDNA-triggered interferon expression”, Nature Communications 10, Article number: 2261 (2019), with slight changes to some conditions as shown in Table B.
The results of the assay, expressed in IC50 values, are reported in Table D with the following designations: A represents an IC50 value<0.01 μM; B represents an IC50 value≥0.01 μM and <0.03 μM; C represents an IC50 value≥0.03 μM and <0.1 μM; D represents an IC50 value≥0.1.

hcGAS, sequence (Q8N884 whole entry): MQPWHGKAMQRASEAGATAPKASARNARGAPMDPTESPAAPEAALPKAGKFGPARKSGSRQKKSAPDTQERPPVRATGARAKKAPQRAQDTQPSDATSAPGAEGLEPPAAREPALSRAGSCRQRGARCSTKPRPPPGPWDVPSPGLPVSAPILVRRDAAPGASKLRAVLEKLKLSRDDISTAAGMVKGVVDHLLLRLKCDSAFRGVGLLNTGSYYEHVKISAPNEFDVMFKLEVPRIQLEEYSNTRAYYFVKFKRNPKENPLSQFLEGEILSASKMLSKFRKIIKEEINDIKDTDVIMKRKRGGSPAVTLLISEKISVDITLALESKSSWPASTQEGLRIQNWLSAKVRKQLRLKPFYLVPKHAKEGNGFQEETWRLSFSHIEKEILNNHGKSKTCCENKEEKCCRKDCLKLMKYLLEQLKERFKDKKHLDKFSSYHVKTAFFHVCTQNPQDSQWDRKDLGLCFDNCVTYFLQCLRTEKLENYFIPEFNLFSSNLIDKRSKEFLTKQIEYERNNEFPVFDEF

SMILES | IC50 [nM]
COc1c(N[C@@H]2CCS(=O)(=O)C2)cc(C(=O)Nc2nnc(-n3nccc3C)s2)oc1=O [Compound 82, (R)-4-((1,1-dioxidotetrahydrothiophen-3-yl)amino)-3-methoxy-N-(5-(5-methyl-1H-pyrazol-1-yl)-1,3,4-thiadiazol-2-yl)-2-oxo-2H-pyran-6-carboxamide] | 30 to 100
COCCNc1cc(C(=O)Nc2nnc(-c3sncc3Cl)s2)oc(=O)c1OC [Compound 139, N-(5-(4-chloroisothiazol-5-yl)-1,3,4-thiadiazol-2-yl)-3-methoxy-4-((2-methoxyethyl)amino)-2-oxo-2H-pyran-6-carboxamide] | 30 to 100
COc1c(NCCO)cc(C(=O)Nc2nnc(-c3sccc3Cl)s2)oc1=O [Compound 147, N-[5-(3-chlorothiophen-2-yl)-1,3,4-thiadiazol-2-yl]-4-[(2-hydroxyethyl)amino]-5-methoxy-6-oxopyran-2-carboxamide] | ≥ 100
COc1c(N[C@H]2C[C@H](OC)C2)cc(C(=O)Nc2nnc(-n3nccc3C)s2)oc1=O [Compound 69, 3-methoxy-4-(((1,3-trans)-3-methoxycyclobutyl)amino)-N-(5-(5-methyl-1H-pyrazol-1-yl)-1,3,4-thiadiazol-2-yl)-2-oxo-2H-pyran-6-carboxamide] | 10 to 30
COc1c(NC23CC(CO)(C2)C3)cc(C(=O)Nc2nnc(-n3nccc3C)s2)oc1=O [Compound 218, 4-((3-(hydroxymethyl)bicyclo[1.1.1]pentan-1-yl)amino)-3-methoxy-N-(5-(5-methyl-1H-pyrazol-1-yl)-1,3,4-thiadiazol-2-yl)-2-oxo-2H-pyran-6-carboxamide] | 10 to 30
COc1c(NCCN(C)C)cc(C(=O)Nc2nnc(-n3nccc3C)s2)oc1=O [Compound 181, 4-((2-(dimethylamino)ethyl)amino)-3-methoxy-N-(5-(5-methyl-1H-pyrazol-1-yl)-1,3,4-thiadiazol-2-yl)-2-oxo-2H-pyran-6-carboxamide] | ≥ 100
COc1c(N[C@H](C)CO)cc(C(=O)Nc2nnc(-n3nccc3C)s2)oc1=O [Compound 25, (R)-4-((1-hydroxypropan-2-yl)amino)-3-methoxy-N-(5-(5-methyl-1H-pyrazol-1-yl)-1,3,4-thiadiazol-2-yl)-2-oxo-2H-pyran-6-carboxamide] | 30 to 100
COCCNc1cc(C(=O)Nc2nnc(-n3ncc(F)c3Cl)s2)oc(=O)c1OC [Compound 134, N-(5-(5-chloro-4-fluoro-1H-pyrazol-1-yl)-1,3,4-thiadiazol-2-yl)-5-methoxy-4-(2-methoxyethylamino)-6-oxo-6H-pyran-2-carboxamide] | 30 to 100
COc1c(NCC(F)F)cc(C(=O)Nc2nnc(-n3nccc3C)s2)oc1=O [Compound 89, 4-((2,2-difluoroethyl)amino)-3-methoxy-N-(5-(5-methyl-1H-pyrazol-1-yl)-1,3,4-thiadiazol-2-yl)-2-oxo-2H-pyran-6-carboxamide] | 10 to 30
CNCCNc1cc(C(=O)Nc2nnc(-n3nccc3C)s2)oc(=O)c1OC [Compound 204, 3-methoxy-N-(5-(5-methyl-1H-pyrazol-1-yl)-1,3,4-thiadiazol-2-yl)-4-((2-(methylamino)ethyl)amino)-2-oxo-2H-pyran-6-carboxamide] | ≥ 100
COCC12CC(Nc3cc(C(=O)Nc4nnc(-n5nccc5C)s4)oc(=O)c3OC)(C1)C2 [Compound 44, 3-methoxy-4-((3-(methoxymethyl)bicyclo[1.1.1]pentan-1-yl)amino)-N-(5-(5-methyl-1H-pyrazol-1-yl)-1,3,4-thiadiazol-2-yl)-2-oxo-2H-pyran-6-carboxamide] | 30 to 100
COc1c(NCCN)cc(C(=O)Nc2nnc(-n3nccc3C)s2)oc1=O [Compound 203, 4-((2-aminoethyl)amino)-3-methoxy-N-(5-(5-methyl-1H-pyrazol-1-yl)-1,3,4-thiadiazol-2-yl)-2-oxo-2H-pyran-6-carboxamide] | ≥ 100
COc1c(NC23CC(C(F)F)(C2)C3)cc(C(=O)Nc2nnc(-n3nccc3C)s2)oc1=O [Compound 115, 4-((3-(difluoromethyl)bicyclo[1.1.1]pentan-1-yl)amino)-3-methoxy-N-(5-(5-methyl-1H-pyrazol-1-yl)-1,3,4-thiadiazol-2-yl)-2-oxo-2H-pyran-6-carboxamide] | 10 to 30
COCCNc1cc(C(=O)Nc2nnc(-n3nccc3Cl)s2)oc(=O)c1OC [Compound 148, N-[5-(5-chloropyrazol-1-yl)-1,3,4-thiadiazol-2-yl]-5-methoxy-4-[(2-methoxyethyl)amino]-6-oxopyran-2-carboxamide] | ≥ 100
COc1c(N[C@H]2CC[C@@H](OC)CC2)cc(C(=O)Nc2nnc(-n3nccc3C)s2)oc1=O [Compound 219, 3-methoxy-4-((1,4-cis-4-methoxycyclohexyl)amino)-N-(5-(5-methyl-1H-pyrazol-1-yl)-1,3,4-thiadiazol-2-yl)-2-oxo-2H-pyran-6-carboxamide] | 10 to 30
COCCNc1cc(C(=O)Nc2nnc(-n3nccc3C(F)F)s2)oc(=O)c1OC [Compound 144, N-(5-(5-(difluoromethyl)-1H-pyrazol-1-yl)-1,3,4-thiadiazol-2-yl)-3-methoxy-4-((2-methoxyethyl)amino)-2-oxo-2H-pyran-6-carboxamide] | 10 to 30
CCc1ccnn1-c1nnc(NC(=O)c2cc(NCCOC)c(OC)c(=O)o2)s1 [Compound 141, N-(5-(5-ethyl-1H-pyrazol-1-yl)-1,3,4-thiadiazol-2-yl)-3-methoxy-4-((2-methoxyethyl)amino)-2-oxo-2H-pyran-6-carboxamide] | ≥ 100

Other lines, results leading:

IC50 [nM] | SMILES
10 to 30 | COc1c(N2CCC(CO)CC2)cc(C(=O)Nc2nnc(-n3nccc3C)s2)oc1=O [Compound 12, 4-(4-(hydroxymethyl)piperidin-1-yl)-3-methoxy-N-(5-(5-methyl-1H-pyrazol-1-yl)-1,3,4-thiadiazol-2-yl)-2-oxo-2H-pyran-6-carboxamide]
30 to 100 | COC[C@H]1CCN(c2cc(C(=O)Nc3nnc(-n4nccc4C)s3)oc(=O)c2OC)C1 [Compound 87, (S)-3-methoxy-4-(3-(methoxymethyl)pyrrolidin-1-yl)-N-(5-(5-methyl-1H-pyrazol-1-yl)-1,3,4-thiadiazol-2-yl)-2-oxo-2H-pyran-6-carboxamide]
30 to 100 | COc1c(N2CCC[C@@H]2CO)cc(C(=O)Nc2nnc(-n3nccc3C)s2)oc1=O [Compound 34, (R)-4-(2-(hydroxymethyl)pyrrolidin-1-yl)-5-methoxy-N-(5-(5-methyl-1H-pyrazol-1-yl)-1,3,4-thiadiazol-2-yl)-6-oxo-6H-pyran-2-carboxamide]
30 to 100 | COc1c(N[C@H]2C[C@@H](O)C2)cc(C(=O)Nc2nnc(-n3nccc3C)s2)oc1=O [Compound 65, 4-(((1,3-cis)-3-hydroxycyclobutyl)amino)-3-methoxy-N-(5-(5-methyl-1H-pyrazol-1-yl)-1,3,4-thiadiazol-2-yl)-2-oxo-2H-pyran-6-carboxamide]
10 to 30 | COc1c(N[C@H]2COC[C@H]2O)cc(C(=O)Nc2nnc(-n3nccc3C)s2)oc1=O [Compound 113, 4-(((3S,4S)-4-hydroxytetrahydrofuran-3-yl)amino)-3-methoxy-N-(5-(5-methyl-1H-pyrazol-1-yl)-1,3,4-thiadiazol-2-yl)-2-oxo-2H-pyran-6-carboxamide]
10 to 30 | COc1c(N2CCC(OC)CC2)cc(C(=O)Nc2nnc(-n3nccc3C)s2)oc1=O [Compound 19, 3-methoxy-4-(4-methoxypiperidin-1-yl)-N-(5-(5-methyl-1H-pyrazol-1-yl)-1,3,4-thiadiazol-2-yl)-2-oxo-2H-pyran-6-carboxamide]
30 to 100 | CNc1cc(C(=O)Nc2nnc(-n3nccc3C)s2)oc(=O)c1OC [Compound 105, 3-methoxy-N-(5-(5-methyl-1H-pyrazol-1-yl)-1,3,4-thiadiazol-2-yl)-4-(methylamino)-2-oxo-2H-pyran-6-carboxamide]
10 to 30 | COc1c(N2CCC[C@H]2CO)cc(C(=O)Nc2nnc(-n3nccc3C)s2)oc1=O [Compound 40, (S)-4-(2-(hydroxymethyl)pyrrolidin-1-yl)-3-methoxy-N-(5-(5-methyl-1H-pyrazol-1-yl)-1,3,4-thiadiazol-2-yl)-2-oxo-2H-pyran-6-carboxamide]
10 to 30 | COc1c(N[C@@H]2CC[C@H]2O)cc(C(=O)Nc2nnc(-n3nccc3C)s2)oc1=O (racemic) [Rac-37, 4-(((1R,2R)-2-hydroxycyclobutyl)amino)-3-methoxy-N-(5-(5-methyl-1H-pyrazol-1-yl)-1,3,4-thiadiazol-2-yl)-2-oxo-2H-pyran-6-carboxamide]
30 to 100 | COc1c(N2CCOCC2)cc(C(=O)Nc2nnc(-n3nccc3C)s2)oc1=O [Compound 186, 3-methoxy-N-(5-(5-methyl-1H-pyrazol-1-yl)-1,3,4-thiadiazol-2-yl)-4-morpholino-2-oxo-2H-pyran-6-carboxamide]
10 to 30 | COc1c(N2CCC(O)CC2)cc(C(=O)Nc2nnc(-n3nccc3C)s2)oc1=O [Compound 46, 4-(4-hydroxypiperidin-1-yl)-3-methoxy-N-(5-(5-methyl-1H-pyrazol-1-yl)-1,3,4-thiadiazol-2-yl)-2-oxo-2H-pyran-6-carboxamide]
30 to 100 | COc1c(N[C@H]2C[C@H](O)C2)cc(C(=O)Nc2nnc(-n3nccc3C)s2)oc1=O [Compound 16, 4-(((1,3-trans)-3-hydroxycyclobutyl)amino)-3-methoxy-N-(5-(5-methyl-1H-pyrazol-1-yl)-1,3,4-thiadiazol-2-yl)-2-oxo-2H-pyran-6-carboxamide]
